Several values for one entry are separate records, joined by “and”; a condition that tells them apart may be missing. Equal values may be shown once. ± gives the expanded uncertainty stated by the source.
Key:
[1] = Crystal
[2] = Molar enthalpy of transition or fusion; conditions: Crystal

Row | Normal melting temperature [1] | Molar enthalpy of transition or fusion [2] [kcal/mol] | SMILES
1 | 111.4 ± 0.8 °C and 109.8 ± 2.5 °C | 6.57 ± 0.765 | CCCC[n+]1cccc(C)c1.[Cl-] [1-butyl-3-methylpyridinium chloride]
2 | 87.7 ± 0.8 °C and 86.8 ± 2.5 °C | 8.87 ± 0.789 | CCCCCCCCCCCC[n+]1cccc(C)c1.[Cl-] [1-dodecyl-3-methylpyridinium chloride]
3 | 110 ± 0.8 °C and 110.0 ± 2.5 °C | 9.63 ± 0.813 | CCCCCCCCCCCCCCCC[n+]1cccc(C)c1.[Cl-] [1-hexadecyl-3-methylpyridinium chloride]
4 | 82.0 ± 0.8 °C and 80 ± 2.5 °C | 4.71 ± 0.741 | CCCCCC[n+]1cccc(C)c1.[Cl-] [1-hexyl-3-methylpyridinium chloride]
5 | 80.1 ± 0.8 °C and 79.2 ± 2.5 °C | 3.56 ± 0.741 | CCCCCCCC[n+]1cccc(C)c1.[Cl-] [1-octyl-3-methylpyridinium chloride]
6 | 93.7 ± 0.8 °C and 94.6 ± 2.5 °C | 10.2 ± 0.813 | CCCCCCCCCCCCCC[n+]1cccc(C)c1.[Cl-] [1-tetradecyl-3-methylpyridinium chloride]
7 | 112.2 ± 0.8 °C and 113 ± 2.5 °C | 6.72 ± 0.765 | CCCCCCCCCCCCCCCCCC[n+]1cccc(C)c1.[Cl-] [3-methyl-1-octadecylpyridinium chloride]

Row | SMILES | Normal melting temperature [1] | Molar enthalpy of transition or fusion [2] [kcal/mol]
8 | CCCCCCCCCC[n+]1cccc(C)c1.[Cl-] [1-decyl-3-methylpyridinium chloride] | 79.4 ± 0.8 °C and 75.6 ± 2.5 °C | 3.44 ± 0.741

— the NIST ThermoML archive (doi:10.1021/je2001446)
